# Earlier results in patent publication US20190256487A1, “HYDROXYN[…]” (BioPharmaWorks, LLC, priority 2016, published 2019).
# What was measured:
# [1] = mice
# [2] = mice; remark: listed apart in the source
smiles,measurement,setting,value
"N[C@@]1(c2ccccc2Cl)CCC[C@@H](O)C1=O [(2R,6R)-HNK, (2R,6R)-hydroxynorketamine]",antidepressant actions,[1],rapid and sustained antidepressant actions
same,ketamine-related side effects,[2],lacks ketamine-related side effects
